What was measured:
Assay type in all cases: in vivo
Wheat = assay: Safening activity of herbicidal compositions on wheat (crop injury)
Protocol: (§1) Seeds of the desired test plant species were planted in Sun Gro MetroMix 306 planting mixture, which typically has a pH of 6.0 to 6.8 and an organic matter content of about 30 percent, in plastic pots with a surface area of 103.2 square centimeters (cm^2). When required to ensure good germination and healthy plants, a fungicide treatment and/or other chemical or physical treatment was applied. The plants were grown for 7-36 days (d) in a greenhouse with an approximate 14-hour (h) photoperiod which was maintained at about 18° C. during the day and 17° C. during the night. Nutrients and water were added on a regular basis and supplemental lighting was provided with overhead metal halide 1000-Watt lamps as necessary. The plants were employed for testing when they reached the second or third true leaf stage.
(§2) Treatments consisted of a cereal fungicide compound (as listed in Tables 1 through 34) and the cereal herbicide, 4-amino-3-chloro-6-(4-chloro-2-fluoro-3-methoxyphenyl)pyridine-2-carboxylic acid, alone and in combination. Weighed amounts of acid, esters (methyl) or salts (triethylammonium, TEA) of 4-amino-3-chloro-6-(4-chloro-2-fluoro-3-methoxyphenyl)pyridine-2-carboxylic acid (Compound I) were placed in 25 milliliter (mL) glass vials and dissolved in a volume of 97:3 volume-to-volume (v/v) acetone/dimethyl sulfoxide (DMSO) to obtain 4.5 milligrams active ingredient per milliliter (mg ai/mL) concentrated solutions. […] The concentrated solutions of Compound I were diluted to 1.5 mg ai/mL with the addition of 2 volumes of an aqueous mixture containing acetone, water, isopropyl alcohol, DMSO, Agri-dex crop oil concentrate, and Triton® X-77 surfactant in a 64.7:26.0:6.7:2.0:0.7:0.01 v/v ratio. A dilution solution was prepared by mixing 1 volume of 97:3 v/v acetone/DMSO and 2 volumes of an aqueous mixture containing acetone, water, isopropyl alcohol, DMSO, Agri-dex crop oil concentrate, and Triton® X-77 surfactant in a 64.7:26.0:6.7:2.0:0.7:0.01 v/v ratio. Compound requirements are based upon a 12 mL application volume at a rate of 187 liters per hectare (L/ha). The concentrated solutions of the cereal fungicides were prepared following the same procedure. Weighed amounts of fungicide were placed in 25 mL glass vials and dissolved in a volume of 97:3 v/v acetone/DMSO to obtain concentrated fungicide solutions. The concentrated solutions of the safener were prepared following the same procedure. Weighed amounts of safener were placed in 25 mL glass vials and dissolved in a volume of 97:3 v/v acetone/DMSO to obtain concentrated safener solutions.
(§3) Spray solutions of the cereal herbicide and the fungicidal compound mixtures were prepared by adding the concentrated solutions to the appropriate amount of dilution solution to form 12 mL spray solution with active ingredients in combinations. Spray solutions of the cereal herbicide, herbicide safener and the fungicidal compound mixtures were prepared by adding the concentrated solutions to the appropriate amount of dilution solution to form 12 mL spray solution with active ingredients in combinations.
(§4) Formulated compounds were applied to the plant material with an overhead Mandel track sprayer equipped with 8002E nozzles calibrated to deliver 187 L/ha over an application area of 0.503 square meters (m^2) at a spray height of 18 inches […] above average plant canopy. Control plants were sprayed in the same manner with the solvent blank.
(§5) The treated plants and control plants were placed in a greenhouse as described above and watered by sub-irrigation to prevent wash-off of the test compounds. After 20-22 d, the condition of the test plants as compared with that of the control plants was determined visually and scored on a scale of 0 to 100 percent where 0 corresponds to no injury and 100 corresponds to complete kill. […]

[1] = test system: kochia (Kochia scoparia L; KCHSC); assay: Postemergence herbicidal activity of mixtures on kochia; parameters: KCHSC Ob: unit: %
Protocol: as §1, §2, §3, §4, §5

[2] = test system: wild pansy (Viola tricolor L; VIOTR); assay: Postemergence herbicidal activity of mixtures on wild pansy
Protocol: as §1, §2, §3, §4, §5

[3] = test system: Russian thistle (Salsola iberica L; SASKR); assay: Postemergence herbicidal activity of mixtures on Russian thistle
Protocol: as §1, §2, §3, §4, §5

[4] = test system: bird's-eye speedwell (Veronica persica L; VERPE); assay: Postemergence herbicidal activity of mixtures on bird's-eye speedwell
Protocol: as §1, §2, §3, §4, §5

Barley = assay: Safening activity of herbicidal compositions on barley (crop injury)
Protocol: as §1, §2, §3, §4, §5

[5] = test system: scented mayweed (Matricaria chamomila L; MATCH); assay: Postemergence herbicidal activity of mixtures on scented mayweed
Protocol: as §1, §2, §3, §4, §5

In the case of `CO/C=C(/C(=O)OC)c1ccccc1Oc1cc(Oc2ccccc2C#N)ncn1` [Azoxystrobin, methyl (αE)-2-[[6-(2-cyanophenoxy)-4-pyrimidinyl]oxy]-α-(methoxymethylene)benzeneacetate], the “TRZAS Ob” value (Wheat; fungicide 250 g/ha) is reported as 0, the pest or weed control at 62.5 g/ha ([1]; Bassia scoparia, post-emergence, fungicide 62.5 g/ha alone, read-out: KCHSC Ob) is reported as 0% and the “KCHSC Ob” value ([1]; fungicide 250 g/ha) is reported as 0. For the same compound, the pest or weed control at 62.5 g/ha ([2]; Viola tricolor, post-emergence, fungicide 62.5 g/ha alone, read-out: VIOTR Ob) was 0%, the pest or weed control at 62.5 g/ha ([3]; Salsola tragus, post-emergence, fungicide 62.5 g/ha alone, read-out: SASKR Ob) was 0% and the “SASKR Ob” value ([3]; fungicide 250 g/ha) was 0. For the same compound, the “VERPE Ob” value ([4]; fungicide 250 g/ha) was 0, the “HORVS Ob” value (Barley; fungicide 250 g/ha) was 0 and the pest or weed control at 62.5 g/ha ([5]; Matricaria, post-emergence, fungicide 62.5 g/ha alone, read-out: MATCH Ob) was 0%. For the same compound, the “MATCH Ob” value ([5]; fungicide 250 g/ha) was 0.
With `O=C(O)COc1ccc(Cl)c2cccnc12` [Cloquintocet] the “TRZAS Ob” value (Wheat; Cloquintocet 4.4 g/ha) was 0, the “TRZAS Ob” value (Wheat; Cloquintocet 8.75 g/ha) was 0 and the “KCHSC Ob” value ([1]; Cloquintocet 4.4 g/ha) was 0. For the same compound, the “KCHSC Ob” value ([1]; Cloquintocet 8.75 g/ha) was 0, the “VIOTR Ob” value ([2]; Cloquintocet 4.4 g/ha) was 0 and the “VIOTR Ob” value ([2]; Cloquintocet 8.75 g/ha) was 0. For the same compound, the “SASKR Ob” value ([3]; Cloquintocet 4.4 g/ha) was 0, the “SASKR Ob” value ([3]; Cloquintocet 8.75 g/ha) was 0 and the “VERPE Ob” value ([4]; Cloquintocet 4.4 g/ha) was 0. For the same compound, the “VERPE Ob” value ([4]; Cloquintocet 8.75 g/ha) was 0, the “HORVS Ob” value (Barley; Cloquintocet 4.4 g/ha) was 0 and the “HORVS Ob” value (Barley; Cloquintocet 8.75 g/ha) was 0. The “MATCH Ob” value ([5]; Cloquintocet 4.4 g/ha) was 0 and the “MATCH Ob” value ([5]; Cloquintocet 8.75 g/ha) was 0.
In the case of `COc1c(Cl)ccc(-c2nc(C(=O)O)c(Cl)c(N)c2F)c1F` [Compound I Acid], the “TRZAS Ob” value (Wheat; Compound I Acid 35 g/ha) is reported as 22, the “KCHSC Ob” value ([1]; Compound I Acid 35 g/ha) is reported as 98 and the “VIOTR Ob” value ([2]; Compound I Acid 35 g/ha) is reported as 60. The “SASKR Ob” value ([3]; Compound I Acid 35 g/ha) was 89, the “VERPE Ob” value ([4]; Compound I Acid 35 g/ha) was 72 and the “HORVS Ob” value (Barley; Compound I Acid 35 g/ha) was 15. The “MATCH Ob” value ([5]; Compound I Acid 35 g/ha) was 87.
For `CC(C1CC1)C(O)(Cn1cncn1)c1ccc(Cl)cc1` (stereo not drawn) [Cyproconazole, α-(4-chlorophenyl)-α-(1-cyclopropylethyl)-1H-1,2,4-triazole-1-ethanol], the pest or weed control at 19.8 g/ha ([1]; Bassia scoparia, post-emergence, fungicide 19.8 g/ha alone, read-out: KCHSC Ob) was 0%, the pest or weed control at 19.8 g/ha ([2]; Viola tricolor, post-emergence, fungicide 19.8 g/ha alone, read-out: VIOTR Ob) was 0% and the pest or weed control at 19.8 g/ha ([3]; Salsola tragus, post-emergence, fungicide 19.8 g/ha alone, read-out: SASKR Ob) was 0%. It also gave a pest or weed control at 19.8 g/ha ([4]; Veronica persica, post-emergence, fungicide 19.8 g/ha alone, read-out: VERPE Ob) of 0% and a pest or weed control at 19.8 g/ha ([5]; Matricaria, post-emergence, fungicide 19.8 g/ha alone, read-out: MATCH Ob) of 0%.
`CCCN(CCOc1c(Cl)cc(Cl)cc1Cl)C(=O)n1ccnc1` [Prochloraz, N-propyl-N-[2-(2,4,6-trichlorophenoxy)ethyl]-1H-imidazole-1-carboxamide] gave a pest or weed control at 101.25 g/ha ([1]; Bassia scoparia, post-emergence, read-out: KCHSC Ob) of 0%, a pest or weed control at 101.25 g/ha ([2]; Viola tricolor, post-emergence, read-out: VIOTR Ob) of 0% and a pest or weed control at 101.25 g/ha ([3]; Salsola tragus, post-emergence, read-out: SASKR Ob) of 0%. It also gave a pest or weed control at 101.25 g/ha ([4]; Veronica persica, post-emergence, read-out: VERPE Ob) of 0% and a pest or weed control at 101.25 g/ha ([5]; Matricaria, post-emergence, read-out: MATCH Ob) of 0%.

Source: patent US9101136B2, “Synergistic herbicide/fungicide composition containing certain pyridine carboxylic acids and certain fungicides” (Dow AgroSciences LLC, priority 2010, dated 2015)
